The target in experiment [1] is GDP-bound KRAS wild-type protein (Homo sapiens, UniProt P01116). Kind of experiment: Binding to KRAS by surface plasmon resonance (SPR), Single Cycle Kinetics. The note with it: SPR, Single Cycle Kinetics, GDP-bound KRAS wild-type protein; read-out: KRAS KD. On the technique in general: SPR reads the build-up and loss of mass on a sensor chip optically.
Experiment [2] deals with GDP-bound HRAS wild-type protein (Homo sapiens, UniProt P01112). The experiment in a line: Binding to HRAS by surface plasmon resonance (SPR), Single Cycle Kinetics. The note with it: SPR, GDP-bound HRAS wild-type protein vs GDP-bound KRAS wild-type protein.
For experiment [3], the target named is GDP-bound NRAS wild-type protein (Homo sapiens, UniProt P01111). Kind of experiment: Binding to NRAS by surface plasmon resonance (SPR), Single Cycle Kinetics. The following applies: SPR, GDP-bound NRAS wild-type protein vs GDP-bound KRAS wild-type protein.
GDP-bound NRAS wild-type protein, sequence (P01111 whole entry): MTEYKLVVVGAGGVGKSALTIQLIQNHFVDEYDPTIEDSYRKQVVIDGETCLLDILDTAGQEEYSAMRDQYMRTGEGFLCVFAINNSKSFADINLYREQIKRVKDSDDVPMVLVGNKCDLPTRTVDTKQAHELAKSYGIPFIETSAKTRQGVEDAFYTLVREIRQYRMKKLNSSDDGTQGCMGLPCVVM

GDP-bound KRAS wild-type protein, sequence (P01116 whole entry): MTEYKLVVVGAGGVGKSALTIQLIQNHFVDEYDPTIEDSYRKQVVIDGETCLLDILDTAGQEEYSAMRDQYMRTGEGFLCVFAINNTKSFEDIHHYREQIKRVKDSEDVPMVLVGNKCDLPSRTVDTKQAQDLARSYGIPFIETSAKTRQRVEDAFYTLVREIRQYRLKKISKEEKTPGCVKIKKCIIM
GDP-bound HRAS wild-type protein, sequence (P01112 whole entry): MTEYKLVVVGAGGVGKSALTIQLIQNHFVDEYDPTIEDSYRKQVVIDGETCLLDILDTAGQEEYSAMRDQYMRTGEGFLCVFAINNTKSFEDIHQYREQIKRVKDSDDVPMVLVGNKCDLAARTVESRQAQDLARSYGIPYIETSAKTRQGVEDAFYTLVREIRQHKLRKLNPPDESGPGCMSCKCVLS

Consider `C=CCCC[C@H]1C(=O)N[C@@H]([C@@H](C)CC)C(=O)N(C)CC(=O)N(C)[C@H]2CCCCN(C2=O)[C@@H](Cc2ccc(C(F)(F)F)cc2)C(=O)N(C)CC(=O)N[C@@H](CCc2cc(F)c(C(F)(F)F)c(F)c2)C(=O)N2C[C@H](OCC)C[C@H]2C(=O)N[C@](C)(CC=C)C(=O)N(C)[C@@H](C2CCCC2)C(=O)N(C)[C@H](C(=O)N2CCOCC2)CC(=O)N1C` [PP0876], for which, in experiment [1], the equilibrium dissociation constant (Kd) came to 0.4 nM. In addition, the “HRAS/KRAS (ratio of KD value for HRAS to KD value for KRAS)” value in experiment [2] was “C (A compound having a KD ratio of 0.1 or more and less than 3 is denoted as C)”. The “NRAS/KRAS (ratio of KD value for NRAS to KD value for KRAS)” value in experiment [3] is “C (A compound having a KD ratio of 0.1 or more and less than 3 is denoted as C)”.
As for `C=CCCCC[C@H]1C(=O)N[C@@H]([C@@H](C)CC)C(=O)N(C)CC(=O)N(C)[C@H]2CCCCN(C2=O)[C@@H](Cc2ccc(C(F)(F)F)cc2)C(=O)N(C)CC(=O)N[C@@H](CCc2cc(F)c(C(F)(F)F)c(F)c2)C(=O)N2C[C@H](OCC)C[C@H]2C(=O)N[C@](C)(CC=C)C(=O)N(C)[C@@H](C2CCCC2)C(=O)N(C)[C@H](C(=O)N2CCOCC2)CC(=O)N1C` [PP0877], the Kd in experiment [1] came out at 0.21 nM. For the same compound, the “HRAS/KRAS (ratio of KD value for HRAS to KD value for KRAS)” value in experiment [2] was “B (a compound having 3 or more and less than 10 is denoted as B)”. Besides, the “NRAS/KRAS (ratio of KD value for NRAS to KD value for KRAS)” value in experiment [3] is “C (A compound having a KD ratio of 0.1 or more and less than 3 is denoted as C)”.
As to `C=CC[C@H]1C(=O)N[C@@H]([C@@H](C)CC)C(=O)N(C)CC(=O)N(C)[C@H]2CCCCCN(C2=O)[C@@H](Cc2ccc(C(F)(F)F)cc2)C(=O)N(C)CC(=O)N[C@@H](CCc2cc(F)c(C(F)(F)F)c(F)c2)C(=O)N2C[C@H](OCC)C[C@H]2C(=O)N[C@](C)(CC=C)C(=O)N(C)[C@@H](C2CCCC2)C(=O)N(C)[C@H](C(=O)N2CCOCC2)CC(=O)N1C` [PP0878], in experiment [1], the equilibrium dissociation constant (Kd) turned out to be 3.2 nM. The “HRAS/KRAS (ratio of KD value for HRAS to KD value for KRAS)” value in experiment [2] was “B (a compound having 3 or more and less than 10 is denoted as B)”. Moreover, the “NRAS/KRAS (ratio of KD value for NRAS to KD value for KRAS)” value in experiment [3] was “B (a compound having 3 or more and less than 10 is denoted as B)”.
Take `CCO[C@@H]1C[C@H]2C(=O)NC3(CCC3)C(=O)N(C)[C@@H](C3CCCC3)C(=O)N(C)[C@H](C(=O)N(C)C)CC(=O)N(C)[C@@H](CC)C(=O)N[C@@H]([C@@H](C)CC)C(=O)N(C)CC(=O)N(C)[C@H]3CCCCN(C3=O)[C@@H](Cc3ccc(C(F)(F)F)cc3)C(=O)N(C)CC(=O)N[C@@H](CCc3ccc(C(F)(F)F)c(C)c3)C(=O)N2C1` [PP0882]: the Kd in experiment [1] came to 0.02 nM. Further, the “HRAS/KRAS (ratio of KD value for HRAS to KD value for KRAS)” value in experiment [2] was “B (a compound having 3 or more and less than 10 is denoted as B)”. Besides, the “NRAS/KRAS (ratio of KD value for NRAS to KD value for KRAS)” value in experiment [3] was “C (A compound having a KD ratio of 0.1 or more and less than 3 is denoted as C)”.
As to `CCO[C@@H]1C[C@H]2C(=O)NC3(CCC3)C(=O)N(C)[C@@H](C3CCCC3)C(=O)N(C)[C@H](C(=O)N(C)C)CC(=O)N(C)[C@@H](CC)C(=O)N[C@@H]([C@@H](C)CC)C(=O)N(C)CC(=O)N(C)[C@H]3CCCCN(C3=O)[C@@H](Cc3ccc(C(F)(F)F)cc3)C(=O)N(C)CC(=O)N[C@@H](CCc3ccc(C(F)(F)F)c(OC)c3)C(=O)N2C1` [PP0884], the dissociation constant Kd in experiment [1] came to 0.022 nM. Also, the “HRAS/KRAS (ratio of KD value for HRAS to KD value for KRAS)” value in experiment [2] was “C (A compound having a KD ratio of 0.1 or more and less than 3 is denoted as C)”. Also, the “NRAS/KRAS (ratio of KD value for NRAS to KD value for KRAS)” value in experiment [3] is “C (A compound having a KD ratio of 0.1 or more and less than 3 is denoted as C)”.
Regarding `CCO[C@@H]1C[C@H]2C(=O)NC3(CCC3)C(=O)N(C)[C@@H](C3CCCC3)C(=O)N(C)[C@H](C(=O)N(C)C)CC(=O)N(C)[C@@H](CC)C(=O)N[C@@H]([C@@H](C)CC)C(=O)N(C)CC(=O)N(C)[C@H]3CCCCN(C3=O)[C@@H](Cc3ccc(C(F)(F)F)cc3)C(=O)N(C)CC(=O)N[C@@H](CCc3ccc(C(F)(F)F)cc3F)C(=O)N2C1` [PP0885], the dissociation constant Kd in experiment [1] is 0.098 nM. In addition, the “HRAS/KRAS (ratio of KD value for HRAS to KD value for KRAS)” value in experiment [2] was “B (a compound having 3 or more and less than 10 is denoted as B)”. Also, in experiment [3], the “NRAS/KRAS (ratio of KD value for NRAS to KD value for KRAS)” value is “C (A compound having a KD ratio of 0.1 or more and less than 3 is denoted as C)”.
In the case of `CCO[C@@H]1C[C@H]2C(=O)NC3(CCC3)C(=O)N(C)[C@@H](C3CCCC3)C(=O)N(C)[C@H](C(=O)N(C)C)CC(=O)N(C)[C@@H](CC)C(=O)N[C@@H]([C@@H](C)CC)C(=O)N(C)CC(=O)N(C)[C@H]3CCCCN(C3=O)[C@@H](Cc3ccc(C(F)(F)F)cc3)C(=O)N(C)CC(=O)N[C@@H](CCc3c(F)c(F)c(C(F)(F)F)c(F)c3F)C(=O)N2C1` [PP0886], the Kd in experiment [1] amounted to 0.086 nM. Moreover, in experiment [2], the “HRAS/KRAS (ratio of KD value for HRAS to KD value for KRAS)” value was “B (a compound having 3 or more and less than 10 is denoted as B)”. Besides, the “NRAS/KRAS (ratio of KD value for NRAS to KD value for KRAS)” value in experiment [3] was “C (A compound having a KD ratio of 0.1 or more and less than 3 is denoted as C)”.
As for `CCO[C@@H]1C[C@H]2C(=O)NC3(CCC3)C(=O)N(C)[C@@H](C3CCCC3)C(=O)N(C)[C@H](C(=O)N(C)C)CC(=O)N(C)[C@@H](CC)C(=O)N[C@@H]([C@@H](C)CC)C(=O)N(C)CC(=O)N(C)[C@H]3CCCCN(C3=O)[C@@H](Cc3ccc(C(F)(F)F)cc3)C(=O)N(C)CC(=O)N[C@@H](CCc3ccc4sccc4c3)C(=O)N2C1` [PP0887], in experiment [1], the Kd was 0.093 nM. Further, in experiment [2], the “HRAS/KRAS (ratio of KD value for HRAS to KD value for KRAS)” value was “C (A compound having a KD ratio of 0.1 or more and less than 3 is denoted as C)”. Moreover, the “NRAS/KRAS (ratio of KD value for NRAS to KD value for KRAS)” value in experiment [3] is “C (A compound having a KD ratio of 0.1 or more and less than 3 is denoted as C)”.
As to `CCO[C@@H]1C[C@H]2C(=O)NC3(CCC3)C(=O)N(C)[C@@H](C3CCCC3)C(=O)N(C)[C@H](C(=O)N(C)C)CC(=O)N(C)[C@@H](CC)C(=O)N[C@@H]([C@@H](C)CC)C(=O)N(C)CC(=O)N(C)[C@H]3CCCCCN(C3=O)[C@@H](Cc3ccc(C(F)(F)F)cc3)C(=O)N(C)CC(=O)N[C@@H](CCc3c(F)c(F)c(C(F)(F)F)c(F)c3F)C(=O)N2C1` [PP0891], the dissociation constant Kd in experiment [1] amounted to 0.62 nM. The “HRAS/KRAS (ratio of KD value for HRAS to KD value for KRAS)” value in experiment [2] was “B (a compound having 3 or more and less than 10 is denoted as B)”. Besides, the “NRAS/KRAS (ratio of KD value for NRAS to KD value for KRAS)” value in experiment [3] is “B (a compound having 3 or more and less than 10 is denoted as B)”.
With `CCCN1C(=O)CN(C)C(=O)CN(C)C(=O)[C@H]([C@@H](C)CC)NC(=O)[C@@H]2CCCCCOc3ccc(cc3)C[C@H]1C(=O)N(C)CC(=O)N[C@@H](CCc1cc(F)c(C(F)(F)F)c(F)c1)C(=O)N1C[C@H](OCC)C[C@H]1C(=O)NC1(CCCC1)C(=O)N(C)[C@@H](C1CCCC1)C(=O)N(C)[C@H](C(=O)N(C)C)CC(=O)N2C` [PP0895], the dissociation constant (Kd) in experiment [1] was 0.0072 nM. The “HRAS/KRAS (ratio of KD value for HRAS to KD value for KRAS)” value in experiment [2] is “C (A compound having a KD ratio of 0.1 or more and less than 3 is denoted as C)”. Further, the “NRAS/KRAS (ratio of KD value for NRAS to KD value for KRAS)” value in experiment [3] was “C (A compound having a KD ratio of 0.1 or more and less than 3 is denoted as C)”.
As for `CCCN1C(=O)CN(C)C(=O)CN(C)C(=O)[C@H]([C@@H](C)CC)NC(=O)[C@@H]2CCCCCCOc3ccc(cc3)C[C@H]1C(=O)N(C)CC(=O)N[C@@H](CCc1cc(F)c(C(F)(F)F)c(F)c1)C(=O)N1C[C@H](OCC)C[C@H]1C(=O)NC1(CCCC1)C(=O)N(C)[C@@H](C1CCCC1)C(=O)N(C)[C@H](C(=O)N(C)C)CC(=O)N2C` [PP0896], the Kd in experiment [1] was determined as 0.018 nM. Besides, in experiment [2], the “HRAS/KRAS (ratio of KD value for HRAS to KD value for KRAS)” value was “C (A compound having a KD ratio of 0.1 or more and less than 3 is denoted as C)”. Also, the “NRAS/KRAS (ratio of KD value for NRAS to KD value for KRAS)” value in experiment [3] was “C (A compound having a KD ratio of 0.1 or more and less than 3 is denoted as C)”.

As a reminder, the Kd is the concentration at which binding is half-saturated.

Source of the values: US20240158446A1, “CYCLIC COMPOUND HAVING SELECTIVE INHIBITORY ACTION ON KRAS OVER HRAS AND NRAS” (CHUGAI SEIYAKU KABUSHIKI KAISHA, priority 2021, published 2024).
